These results are taken from patent US4188387A, “Amino-aryl 1,24-triazines useful in the treatment of diverse pain” (priority 1977, dated 1980).

“Also recorded” adds a separate entry of the source. Like-named read-outs stand apart in the source and are kept apart here.

One data set can be described thus: in vivo. The settings on record: mouse. As for the experimental part: The toxicity study was carried out on the conventional mouse, weighing about 20 g.
The substances were administered orally and intraperitoneally.
The LD50 was calculated in accordance with the method of L. C. MILLER and M. L. TAINTER, Proc. Soc. exper.

A short description of data set [1]: Analgesic activity according to […] et al. (phenyl benzoquinone injection). The format is in vivo. The settings on record: oral, 30 minutes before the injection of phenyl benzoquinone. As for the experimental part:
The compounds are administered orally 30 minutes before the injection of phenyl benzoquinone.

A short description of a further data set: Solubility. The format is physicochemical. The following applies: solvents named in the value.
The next data set relates to dental pulp. The data set is described as follows: Electric stimulation of dental pulp in rabbits (J. CHEYMOL et al.). Type of data set: in vivo.
Data set [2] can be described thus: Ulcerogenic effect (criteria of PFEIFER and LEWALDOWFKI). The format is in vivo. The settings on record: criteria of C. J. PFEIFER and L. G. LEWALDOWFKI
The source says:
J. PFEIFER and L. G. LEWALDOWFKI (Arch. Int. Pharmacodyn. 1971, 190, 5-13).

Where [3] appears, read: ip, intraperitoneal, read-out: LD50 intraperitoneally.

As to `CN(C)CCCn1nc(-c2ccc(N(C)C)cc2)c(-c2ccc(N(C)C)cc2)nc1=O` [ST 778], the LD50 – broadly, the dose expected to kill half of the subjects tested – in the data set “in vivo” (oral, read-out: LD50 orally) is greater than 1000 mg/kg. In data set [1], the median effective dose (ED50) (as a rule, the midpoint of the dose-response relation) was 1 to 50 mg/kg. Further, the solubility result in “Solubility” is “Soluble in dilute aqueous acids, alcohol, benzene, methylene chloride, and chloroform; also recorded: Insoluble in water, dilute bases and ether”.

On to `CN(C)c1ccc(-c2nn(C)c(=O)nc2-c2ccc(Cl)cc2)cc1` [ST 761, 2-methyl 3-oxo 5(parachlorophenyl) 6(p-dimethylaminophenyl) as triazine], for which the 50% lethal dose (LD50) in “in vivo” (setting [3]) is 400 mg/kg; in “in vivo” (oral, read-out: LD50 orally), 1500 mg/kg. In data set [1], this compound displayed an ED50 of 4 mg/kg. The solubility entry in “Solubility” is “Soluble in dilute acids, CH2 Cl2, and chloroform; also recorded: Insoluble in water, dilute bases, and ether”.

Take `CC(=O)Oc1ccccc1C(=O)O` [Acetylsalicylic acid, reference compound]: in data set [1], the ED50 turned out to be 100 mg/kg.

As for `CN(C)c1ccc(-c2n[nH]c(=O)nc2-c2ccc(N(C)C)cc2)cc1`, in “Solubility”, the solubility entry was “Soluble in aqueous dilute bases and acids; also recorded: poorly soluble in alcohol, benzene, methylene chloride, chloroform; also recorded: Insoluble in ether”.

In turn, `CN(C)c1ccc(-c2nc(=O)n(C)nc2-c2ccc(N(C)C)cc2)cc1` [ST 729, 2-methyl 3-oxo 5,6-di(paradimethylamino-phenyl) as triazine] registered an ED50 in data set [1] of 1 mg/kg. Further, in the data set on dental pulp, the “analgesic activity in electric stimulation of dental pulp” value is “confirmed”. For the same compound, in data set [2], the ulcerogenic effect entry was “without ulcerogenic effect”. Besides, the solubility result in the data set “Solubility” is “insoluble in water, dilute bases, benzene, and ether; also recorded: Soluble in dilute acids, alcohol and methylene chloride”.

On to `CCN(CC)CCn1nc(-c2ccc(N(C)C)cc2)c(-c2ccc(N(C)C)cc2)nc1=O` [ST 790, 2-diethylaminoethyl 3-oxo 5,6(paradimethylaminophenyl) as triazine], for which, in “in vivo” (oral, read-out: LD50 orally), the 50% lethal dose (LD50) is greater than 1000 mg/kg. In data set [1], the ED50 is 1 to 50 mg/kg. Also, the solubility entry in the data set “Solubility” is “Soluble in dilute aqueous acids, alcohol, benzene, methylene chloride, and chloroform; also recorded: Insoluble in bases, water, and ether”.

On to `CN(C)c1ccc(-c2nn(C)c(=O)nc2-c2ccccc2Cl)cc1` [ST 746, 2-methyl 3-oxo 5(orthochlorophenyl) 6(paradimethylaminophenyl) as. triazine], for which the LD50 stood at 300 mg/kg in “in vivo” (setting [3]) and 1000 mg/kg in the data set “in vivo” (oral, read-out: LD50 orally). The compound also displayed an ED50 in data set [1] of 100 mg/kg. Also, in the data set “Solubility”, the solubility result is “Insoluble in water, dilute bases and ether; also recorded: Soluble in methylene chloride, benzene, alcohol, chloroform and dilute acids”.

As for `CN(C)c1ccc(-c2nc(=O)n(CCN3CCOCC3)nc2-c2ccc(N(C)C)cc2)cc1` [ST 767, 2 Ethyl morpholino 3-oxo 5,6 di(paradimethylaminophenyl) as. triazine], in the data set “in vivo” (oral, read-out: LD50 orally), the LD50 is greater than 1000 mg/kg. The median effective dose (ED50) in data set [1] lay in the range of 1 to 50 mg/kg. In addition, the solubility result in “Solubility” is “Soluble in dilute aqueous acids, alcohol, methylene chloride, and chloroform; also recorded: Insoluble in water and dilute bases, benzene and ether”.

Take `O=C(OCC(O)CO)c1ccccc1Nc1ccnc2cc(Cl)ccc12` (stereo not drawn) [Glaphenine, reference compound]: the ED50 in data set [1] stood at 36 mg/kg.

`CCN(CC)c1ccc(-c2nnc(O)nc2-c2ccc(N(CC)CC)cc2)cc1` [ST 770, 3-oxo 5,6-di(paradiethylaminophenyl) as triazine]: in “Solubility”, the solubility result is “Soluble in dilute acids and bases, alcohol, benzene, and methylene chloride”.

Consider `CN(C)c1ccc(-c2nc(=S)n(C)nc2-c2ccc(N(C)C)cc2)cc1` [ST 811, 2-methyl 3-thione 5,6-di(paradimethylaminophenyl)as triazine], for which, in the data set “in vivo” (oral, read-out: LD50 orally), the LD50 was greater than 1000 mg/kg. For the same compound, in data set [1], the ED50 fell in the range of 1 to 50 mg/kg. Moreover, the solubility result in “Solubility” is “Soluble in aqueous dilute acids, alcohols, and methylene chloride; also recorded: Insoluble in water, aqueous bases, and ether”.

Take `C=CCn1nc(-c2ccc(N(C)C)cc2)c(-c2ccc(N(C)C)cc2)nc1=O` [ST 776, 2-allyl 3-oxo 5,6-di(paradimethylaminophenyl) as triazine]: the median lethal dose (LD50) in the data set “in vivo” (oral, read-out: LD50 orally) is greater than 1000 mg/kg. In addition, in data set [1], the ED50 was in the range of 1 to 50 mg/kg. In the data set on dental pulp, the “analgesic activity in electric stimulation of dental pulp” value is “confirmed”. Further, in data set [2], the ulcerogenic effect result is recorded as “without ulcerogenic effect”. Also, in “Solubility”, the solubility result was “Soluble in dilute aqueous acids, alcohol, benzene, methylene chloride, and chloroform; also recorded: Insoluble in water, bases, and ether”.

For the compound `CCN(CC)c1ccc(-c2nc(=O)n(C)nc2-c2ccc(N(CC)CC)cc2)cc1` [ST 771, 2-methyl 3-oxo 5,6-di(paradiethylaminophenyl) as triazine], in “in vivo” (oral, read-out: LD50 orally), the 50% lethal dose (LD50) is greater than 1000 mg/kg. The solubility entry in “Solubility” was “Soluble in dilute aqueous acids, alcohol, methylene chloride, and chloroform; also recorded: Insoluble in water, dilute bases, benzene, ether”.

As for `CN(C)c1ccc(-c2n[nH]c(=O)nc2-c2ccccc2Cl)cc1` [ST 745], in “Solubility”, the solubility entry was “Insoluble in water, benzene, and ether; also recorded: Soluble in dilute bases and acids, ethanol, and methylene chloride”.
